Legend:
Bcl-2 = Bcl-2 (Homo sapiens, UniProt P10415); assay: Bcl-2 binding affinity analysis (fluorescence polarization binding assay)
Text: (§1) Bcl-2 and Bcl-xL binding can be determined using a variety of known methods. One such assay is a sensitive and quantitative in vitro binding assay using fluorescence polarization (FP) described by Wang, J. -L.; Zhang, Z -J.; Choksi, S.; Sjam. S.; Lu, Z.; Croce, C. M.; Alnenri, E. S.; Komgold, R.; Huang, Z. Cell permeable Bcl-2 binding peptides: a chemical approach to apoptosis induction in tumor cells. Cancer Res. 2000, 60, 1498-1502).
(§2) Bcl-2 and Bcl-xL binding affinity analysis data is presented below for various compounds of the invention.

Bcl-xL = Bcl-xL (Homo sapiens, UniProt Q07817); assay: Bcl-xL binding affinity analysis (fluorescence polarization binding assay); parameters: scale not given here
Sequence of Bcl-xL (Q07817 whole entry): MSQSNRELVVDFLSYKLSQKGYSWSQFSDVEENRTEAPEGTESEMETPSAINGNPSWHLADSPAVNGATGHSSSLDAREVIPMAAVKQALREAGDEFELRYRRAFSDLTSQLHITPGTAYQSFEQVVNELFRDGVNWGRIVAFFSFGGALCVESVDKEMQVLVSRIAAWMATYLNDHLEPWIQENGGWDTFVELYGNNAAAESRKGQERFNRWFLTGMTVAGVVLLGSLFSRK
Text: as §1, §2

Sequence of Bcl-2 (P10415 whole entry): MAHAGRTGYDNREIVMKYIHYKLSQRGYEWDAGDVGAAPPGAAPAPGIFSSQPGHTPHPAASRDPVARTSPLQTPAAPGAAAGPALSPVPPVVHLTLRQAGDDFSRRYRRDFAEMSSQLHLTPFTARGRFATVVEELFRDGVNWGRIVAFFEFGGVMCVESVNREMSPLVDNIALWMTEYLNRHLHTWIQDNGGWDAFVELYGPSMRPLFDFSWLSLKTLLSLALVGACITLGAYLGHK

SMILES	Ki (Bcl-2) [nM]	Bcl-XL binding affinity Ki (Bcl-xL)
C[C@H](O)[C@@H]1[C@H](CO)ON(Cc2cccc(CN(CCN(C)C)Cc3ccccc3)c2)[C@@H]1C(=O)NC1CCN(Cc2ccccc2)CC1 [Compound 527]	6000 to 50000	♯
CC(C)CNC(=O)[C@@H]1[C@H]([C@H](C)O)[C@H](CO)ON1Cc1cccc(CN(Cc2ccccc2)[C@@H](CC(C)C)CN(C)C)c1 [Compound 540]	6000 to 50000	♯
C[C@H](O)[C@@H]1[C@H](CO)ON(Cc2cccc(CN(CCN(C)C)Cc3ccccc3)c2)[C@@H]1C(=O)NCCCCc1ccccc1 [Compound 519]	800 to 6000	♯
C[C@@H]1[C@@H](NC(=O)[C@@H]2[C@H]([C@H](C)O)[C@H](CO)ON2Cc2cccc(C#CCNCc3ccccn3)c2)C[C@H]2C[C@@H]1C2(C)C [Compound 66]	800 to 6000	–
C[C@@H](O)[C@H]1[C@@H](CO)ON(Cc2cccc(C#CC(O)Cc3ccccc3)c2)[C@H]1C(=O)NCCCN(C)c1ccccc1 (stereo partly drawn) [Compound 39]	800 to 6000	♯♯
COC(=O)[C@@H](NC(=O)[C@@H]1[C@H]([C@H](C)O)[C@H](CO)ON1Cc1cccc(C#CC2(N)CCCCC2)c1)C(C)C [Compound 47]	> 50000	♯♯
CC(C)C[C@@H](CN(C)C)N(Cc1ccccc1)Cc1cccc(CN2O[C@@H](CO)[C@@H]([C@H](C)O)[C@H]2C(=O)NCc2ccc(Oc3ccccc3)cc2)c1 [Compound 530]	800 to 6000	♯
CC(C)CCNC(=O)[C@@H]1[C@H]([C@H](C)O)[C@H](CO)ON1Cc1cccc(CN(Cc2ccccc2)[C@@H](CC(C)C)CN(C)C)c1 [Compound 533]	800 to 6000	♯
C[C@@H]1[C@@H](NC(=O)[C@@H]2[C@H]([C@H](C)O)[C@H](CO)ON2Cc2cccc(C#CCNC(=O)NCc3ccccc3)c2)C[C@H]2C[C@@H]1C2(C)C [Compound 78]	800 to 6000	–
C[C@@H](O)[C@H]1[C@@H](CO)ON(Cc2cccc(C#CCNC(=O)NC3CC3c3ccccc3)c2)[C@H]1C(=O)NCCCN(C)c1ccccc1 (stereo partly drawn) [Compound 80]	800 to 6000	–
C[C@@H](O)[C@H]1[C@@H](CO)ON(Cc2cccc(C#CCNS(=O)(=O)c3cccc4cccnc34)c2)[C@H]1C(=O)NCCCN(C)c1ccccc1 [Compound 75]	800 to 6000	–
C[C@@H]1[C@@H](NC(=O)[C@@H]2[C@H]([C@H](C)O)[C@H](CO)ON2Cc2cccc(C#CCNCc3c[nH]c4ccccc34)c2)C[C@H]2C[C@@H]1C2(C)C [Compound 68]	800 to 6000	–
C[C@@H](O)[C@H]1[C@@H](CO)ON(Cc2cccc(C#CCNS(=O)(=O)c3ccc(Oc4ccccc4)cc3)c2)[C@H]1C(=O)NCCCN(C)c1ccccc1 [Compound 72]	6000 to 50000	–
C[C@@H](O)[C@H]1[C@@H](CO)ON(Cc2cccc(C#CCNCc3ccc(-c4ccccc4)cc3)c2)[C@H]1C(=O)NCCCN(C)c1ccccc1 [Compound 71]	6000 to 50000	–
C[C@@H]1[C@@H](NC(=O)C2[C@H]([C@H](C)O)[C@H](CO)ON2Cc2cccc(C#CCNS(=O)(=O)c3ccc(-c4ccccc4)cc3)c2)C[C@H]2C[C@@H]1C2(C)C (stereo partly drawn) [Compound 73]	800 to 6000	–
C[C@@H]1[C@@H](NC(=O)[C@@H]2[C@H]([C@H](C)O)[C@H](CO)ON2Cc2cccc(C#CCNS(=O)(=O)c3ccccc3)c2)C[C@H]2C[C@@H]1C2(C)C [Compound 76]	800 to 6000	–
C[C@@H]1[C@@H](NC(=O)[C@@H]2[C@H]([C@H](C)O)[C@H](CO)ON2Cc2cccc(C#CCNS(=O)(=O)Cc3ccccc3)c2)C[C@H]2C[C@@H]1C2(C)C [Compound 74]	800 to 6000	–
C[C@@H](O)[C@H]1[C@@H](CO)ON(Cc2cccc(C#CCNC(=O)Nc3ccccc3)c2)[C@H]1C(=O)NCCCN(C)c1ccccc1 [Compound 79]	800 to 6000	–
C[C@@H](O)[C@H]1[C@@H](CO)ON(Cc2cccc(C#CCNC(=O)NCc3ccccc3)c2)[C@H]1C(=O)NCCCN(C)c1ccccc1 [Compound 77]	800 to 6000	–

More lines, now with the values ahead:

Ki (Bcl-2) [nM]	Bcl-XL binding affinity Ki (Bcl-xL)	SMILES
< 800	♯	C[C@@H]1[C@@H](NC(=O)[C@@H]2[C@H]([C@H](C)O)[C@H](CO)ON2Cc2cccc(-c3cccc(C(=O)NCCN4CCCCC4)c3)c2)C[C@H]2C[C@@H]1C2(C)C [Compound 105]
800 to 6000	♯♯	CC(C)C[C@@H](CN(C)C)NC(=O)c1cccc(-c2cccc(CN3O[C@@H](CO)[C@@H]([C@H](C)O)[C@H]3C(=O)N[C@H]3C[C@H]4C[C@@H]([C@@H]3C)C4(C)C)c2)c1 [Compound 97]
< 800	♯♯	Cc1cc(-c2cccc(CN3O[C@@H](CO)[C@@H]([C@H](C)O)[C@H]3C(=O)N[C@H]3C[C@H]4C[C@@H]([C@@H]3C)C4(C)C)c2)ccc1C(=O)N(C)C [Compound 150]
800 to 6000	♯	CC(C)C[C@@H](CN(C)C)NCc1cccc(CN2O[C@@H](CO)C([C@H](C)O)[C@H]2C(=O)N[C@H]2C[C@H]3C[C@@H]([C@@H]2C)C3(C)C)c1 (stereo partly drawn) [Compound 552]
800 to 6000	♯	CC(C)C[C@@H](CN(C)C)N(Cc1ccccc1)Cc1cccc(CN2O[C@@H](CO)[C@@H]([C@H](C)O)[C@H]2C(=O)NCc2cccc(-c3ccccc3)c2)c1 [Compound 537]
< 800	♯	CCCNC(=O)c1ccc(-c2cccc(CN3O[C@@H](CO)[C@@H]([C@H](C)O)[C@H]3C(=O)N[C@H]3C[C@H]4C[C@@H]([C@@H]3C)C4(C)C)c2)cc1 [Compound 299]
800 to 6000	♯	C[C@H](O)[C@@H]1[C@H](CO)ON(Cc2cccc(C#C[C@@H](O)c3ccccc3)c2)[C@@H]1C(=O)N[C@H]1C[C@H]2CC([C@@H]1C)C2(C)C [Compound 52]
< 800	♯	CC(O)C1C(CO)ON(Cc2cccc(C(=O)N(CCN(C)C)Cc3ccccc3)c2)C1C(=O)NC1CC2CC(C1C)C2(C)C (stereo not drawn) [Compound 504]
< 800	♯	CC(O)C1C(CO)ON(Cc2cccc(CN(CCN(C)C)Cc3ccccc3-c3cccc(F)c3)c2)C1C(=O)NC1CC2CC(C1C)C2(C)C (stereo not drawn) [Compound 342]
< 800	♯	CC(O)C1C(CO)ON(Cc2cccc(CN(CCN(C)C)Cc3ccccc3-c3ccc(F)cc3)c2)C1C(=O)NC1CC2CC(C1C)C2(C)C (stereo not drawn) [Compound 341]
< 800	♯	C[C@H](O)[C@@H]1[C@H](CO)ON(Cc2cccc(N3CCN(C(=O)N(C)C)CC3)c2)[C@@H]1C(=O)NC1C[C@H]2C[C@@H]([C@@H]1C)C2(C)C (stereo partly drawn) [Compound 291]
< 800	♯	C[C@@H]1[C@@H](NC(=O)[C@@H]2[C@H]([C@H](C)O)[C@H](CO)ON2Cc2cccc(N3CCN(C(=S)NCCN4CCOCC4)CC3)c2)C[C@H]2C[C@@H]1C2(C)C [Compound 264]
< 800	♯♯	CC(=O)Nc1cccc(-c2cccc(CN3O[C@@H](CO)[C@@H]([C@H](C)O)[C@H]3C(=O)NC3C[C@H]4C[C@@H]([C@@H]3C)C4(C)C)c2)c1 (stereo partly drawn) [Compound 183]
< 800	♯♯	C[C@@H]1[C@@H](NC(=O)[C@@H]2[C@H]([C@H](C)O)[C@H](CO)ON2Cc2cccc(-c3cccc(C(=O)N4CC[C@@H](N(C)C)C4)c3)c2)C[C@H]2C[C@@H]1C2(C)C [Compound 152]
